pIC50: −log10 of the molar value.
Assays:
[1] = target: T1, LuxPQ (LuxQ in interplay with LuxP) (Vibrio harveyi, UniProt P54300); assay: inhibition of LuxU phosphorylation by [gamma-32P]ATP, membrane vesicles, SDS-PAGE autoradiography; format: biochemical; settings: read-out: half-maximal inhibition
T1 construct: full-length wild-type LuxQ with C-terminal His6 in inverted membrane vesicles of E. coli TKR2000 (pNKQ); read-out phosphorylation of purified His6-LuxU; with Autoinducer 2 sensor kinase/phosphatase LuxQ

LuxN = LuxN (Vibrio campbellii, UniProt A7MRY4); assay: biochemical; settings: read-out: % inhibition at 10 μM
Sequence of LuxN (A7MRY4 whole entry): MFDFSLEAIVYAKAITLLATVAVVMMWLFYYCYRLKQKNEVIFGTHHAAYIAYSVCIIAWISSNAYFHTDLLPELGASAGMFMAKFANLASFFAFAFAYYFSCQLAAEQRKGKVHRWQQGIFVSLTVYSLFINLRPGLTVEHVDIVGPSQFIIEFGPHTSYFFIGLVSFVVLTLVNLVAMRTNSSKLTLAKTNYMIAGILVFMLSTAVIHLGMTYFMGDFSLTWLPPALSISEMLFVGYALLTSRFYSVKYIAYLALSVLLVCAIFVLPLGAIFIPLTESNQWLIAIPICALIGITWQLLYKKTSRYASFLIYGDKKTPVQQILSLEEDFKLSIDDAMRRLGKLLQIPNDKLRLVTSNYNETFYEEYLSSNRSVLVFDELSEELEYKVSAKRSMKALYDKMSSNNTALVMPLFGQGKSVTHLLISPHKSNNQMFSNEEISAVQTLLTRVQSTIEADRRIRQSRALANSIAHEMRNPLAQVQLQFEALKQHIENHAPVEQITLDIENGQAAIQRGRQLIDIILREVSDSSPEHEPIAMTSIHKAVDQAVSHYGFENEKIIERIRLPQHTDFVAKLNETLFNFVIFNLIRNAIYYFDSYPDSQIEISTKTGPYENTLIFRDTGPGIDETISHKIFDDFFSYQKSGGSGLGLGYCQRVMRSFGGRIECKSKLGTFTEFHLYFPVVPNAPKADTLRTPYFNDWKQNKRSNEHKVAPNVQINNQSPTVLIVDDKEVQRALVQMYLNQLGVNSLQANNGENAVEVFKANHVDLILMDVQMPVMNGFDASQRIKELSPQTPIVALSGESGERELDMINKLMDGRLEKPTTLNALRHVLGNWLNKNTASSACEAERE

T1 sequence (P54302 whole entry): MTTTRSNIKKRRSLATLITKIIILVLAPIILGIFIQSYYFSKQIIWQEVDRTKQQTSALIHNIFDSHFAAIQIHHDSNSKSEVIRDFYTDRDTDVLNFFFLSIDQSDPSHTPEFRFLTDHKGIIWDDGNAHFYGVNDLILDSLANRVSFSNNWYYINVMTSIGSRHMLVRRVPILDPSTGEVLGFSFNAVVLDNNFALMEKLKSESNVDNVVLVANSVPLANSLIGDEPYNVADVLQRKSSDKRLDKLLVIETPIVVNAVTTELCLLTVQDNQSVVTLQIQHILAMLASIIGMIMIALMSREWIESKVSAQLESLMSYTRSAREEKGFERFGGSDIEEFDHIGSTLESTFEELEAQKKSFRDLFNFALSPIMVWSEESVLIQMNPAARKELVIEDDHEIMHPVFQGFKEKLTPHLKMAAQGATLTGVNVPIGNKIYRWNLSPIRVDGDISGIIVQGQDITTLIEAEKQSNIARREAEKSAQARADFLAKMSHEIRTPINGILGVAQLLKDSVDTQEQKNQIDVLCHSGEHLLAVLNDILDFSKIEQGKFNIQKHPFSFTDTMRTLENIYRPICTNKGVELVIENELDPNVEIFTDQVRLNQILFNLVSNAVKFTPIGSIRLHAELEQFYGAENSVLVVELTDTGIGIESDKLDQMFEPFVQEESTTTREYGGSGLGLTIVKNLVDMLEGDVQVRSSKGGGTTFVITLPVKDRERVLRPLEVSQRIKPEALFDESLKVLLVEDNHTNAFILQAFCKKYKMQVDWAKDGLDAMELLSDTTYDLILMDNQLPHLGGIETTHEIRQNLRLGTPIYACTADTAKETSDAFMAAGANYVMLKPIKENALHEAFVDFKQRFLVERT
T1 sequence (P54300 24-365): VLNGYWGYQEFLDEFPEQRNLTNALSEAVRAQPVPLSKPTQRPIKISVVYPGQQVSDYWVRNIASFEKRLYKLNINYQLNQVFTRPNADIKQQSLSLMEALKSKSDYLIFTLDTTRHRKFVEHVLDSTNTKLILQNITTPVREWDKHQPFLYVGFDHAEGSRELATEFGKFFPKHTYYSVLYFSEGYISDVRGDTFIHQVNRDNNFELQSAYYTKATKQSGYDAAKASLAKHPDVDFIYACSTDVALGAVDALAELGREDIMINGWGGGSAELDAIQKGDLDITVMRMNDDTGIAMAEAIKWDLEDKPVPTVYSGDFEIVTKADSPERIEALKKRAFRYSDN

Row | Compound | pIC50 [1] | inhibition at 10 µM (LuxN) [%]
1 | C[C@]12OC[C@H](O)[C@@]1(O)O[B-](O)(O)O2 [AI-2] | 5.30 | 
2 | C[C@@H](O)CC(=O)N[C@H]1CCOC1=O [HAI-1, N-(3-hydroxybutyryl)-homoserine lactone] |  | 57

Source: article PMC3482212, “Autoinducers Act as Biological Timers in Vibrio harveyi” (PLoS ONE, 2012)
